From patent US20070009593A1, “Methods of treating cancer” (Indianan University Advanced Research, priority 2002, published 2007)
Each block holds one compound with its values, some of them ahead of it. Peptide text beside a SMILES is read from it. * marks the point of attachment. Cbz = O=C(OCc1ccccc1)*

What was measured:
Caco 2 cells = test: proliferation / combination assay in colon cancer cells; assay type: cell-based; conditions: Homo sapiens; Caco 2, single agent; read-out: IC50
MDA-231 = test: MTT assay, breast cancer line; assay type: cell-based; conditions: Homo sapiens, MDA-MB-231; MDA-231, 48 hours, MTT, single agent; read-out: IC50
Protocol: The drugs were tested together at the ratio of their IC50 as single agents, over a 4-log range of concentrations. […] Viable cell number was measured by MTT assay.

H23 [1] = test: MTT assay, NSCLC cell line; assay type: cell-based; conditions: Homo sapiens, NCI-H23
A549 [2] = test: MTT assay, NSCLC cell line; assay type: cell-based; conditions: Homo sapiens; for IC80: A549, MTT assay, single agent; for IC50: MTT assay
H460 [3] = test: MTT assay, NSCLC cell line; assay type: cell-based; conditions: Homo sapiens; for IC50: NCI-H460; for IC80: NCI-H460, single agent
H522 = test: MTT assay, NSCLC cell line; assay type: cell-based; conditions: Homo sapiens; for IC50: NCI-H522; for IC80: NCI-H522, single agent
[4] = biological target: T1, chymotryptic active site of the proteasome (ZGGL-AMC cleavage) (Homo sapiens, UniProt P28074); test: fluorometric assay of ZGGL-AMC cleavage by Caco 2 cells; assay type: cell-based; conditions: for ZGGL-AMC cleavage: Caco 2 cells (DMSO control 0.287)
T1 construct: Fluorometric assay of ZGGL-AMC cleavage by Caco 2 cells; endogenous in cells; host or cells: Caco 2

HUVEC = HUVEC cell spreading assay; assay type: cell-based, human; conditions: 100 μM, same spreading conditions
Protocol: Cells were fixed in 3.7% formaldehyde in PBS, blocked and stained with Oregon-green phalloidin 514 (Molecular Probes), and then digitally photographed using a Zeiss inverted fluorescence microscope equipped with a CCD camera. Cell areas were measured on the digital images using the Spot program (Diagnostic Imaging).

A549 [5] = test: cell survival at 60 hours, amprenavir; assay type: cell-based; conditions: A549, 60 hours, FIG. 4
Text: (§1) Three cancer cell lines (A549, H460, and H23) where treated with varying doses of amprenavir.

H23 [6] = test: cell survival at 60 hours, amprenavir; assay type: cell-based; conditions: H23, 60 hours, FIG. 4
Text: as §1

H460 [7] = test: cell survival at 60 hours, amprenavir; assay type: cell-based; conditions: H460, 60 hours, FIG. 4
Text: as §1

IC50 (Caco 2 cells): 60000 nM
Compound: Cc1ccc(-c2cc(C(F)(F)F)nn2-c2ccc(S(N)(=O)=O)cc2)cc1 [Celecoxib, celecoxib]

IC50 (MDA-231): 10 nM | IC50 (Caco 2 cells): 5 nM | IC50 (A549 [2]): 4.5 nM | IC50 (H460 [3]): 5 nM | IC50 (H522): 4.9 nM
Compound: CC(=O)O[C@@]12CO[C@@H]1C[C@H](O)[C@@]1(C)C(=O)[C@H](O)C3=C(C)[C@@H](OC(=O)[C@H](O)[C@@H](NC(=O)OC(C)(C)C)c4ccccc4)C[C@@](O)([C@@H](OC(=O)c4ccccc4)[C@H]21)C3(C)C [Docetaxel, docetaxel]
IC50 (H23 [1]): 5.5 nM | IC80 (A549 [2]): > 50 nM | IC80 (H460 [3]): > 50 nM | IC80 (H522): > 50 nM

IC50 (Caco 2 cells): 28000 nM
Compound: O=c1[nH]cc(F)c(=O)[nH]1 [Formula 5-FU, 5-fluorouracil]

blocks substrate cleavage (ZGGL-AMC) ([4]; 5 μM, Caco 2 cells): over 95% | ZGGL-AMC cleavage ([4]; 5 μM): 0.022 pmol·s^1− 10^6 cells
Compound: CC(=O)N[C@@H](CSC(=O)[C@]1([C@@H](O)C(C)C)NC(=O)[C@H](C)[C@@H]1O)C(=O)O [Lactacystin, lactacystin]

Compound: CC(C)[C@H](NC(=O)OCc1ccccc1)C(=O)N[C@H](C=O)Cc1ccccc1 [MDL 28, 170] (Cbz-Val-Phe-aldehyde)
blocked spreading (HUVEC): 21%

ZGGL-AMC cleavage ([4]; 50 μM): 0.187 pmol·s^1− 10^6 cells | blocks ZGGL-AMC cleavage ([4]; Caco 2 cells (50 μM in table)): less than 30%
Compound: O=C(O)/C(S)=C/c1ccc(I)cc1 [PD150606]

IC50 (Caco 2 cells): 400 nM | IC50 (A549 [2]): 90 nM | IC50 (H460 [3]): 120 nM | IC50 (H522): 105 nM
Compound: CC(=O)O[C@H]1C(=O)[C@@]2(C)[C@H]([C@H](OC(=O)c3ccccc3)[C@]3(O)C[C@H](OC(=O)[C@H](O)[C@@H](NC(=O)c4ccccc4)c4ccccc4)C(C)=C1C3(C)C)[C@]1(OC(C)=O)CO[C@@H]1C[C@@H]2O [Paclitaxel, paclitaxel]
IC50 (H23 [1]): 110 nM | IC80 (A549 [2]): > 200 nM | IC80 (H460 [3]): > 200 nM | IC80 (H522): > 200 nM

Compound: amprenavir
IC50 (A549 [5]): 4000 to 5000 nM | IC50 (H23 [6]): 4000 to 5000 nM | IC50 (H460 [7]): 4000 to 5000 nM
